Test results published in patent US5491135A (priority 1993, dated 1996).
Values joined by “and” are separate entries in the source; they are usually repeats but may differ in a detail not shown here. Equal entries are not always repeated. “Also recorded” adds a separate entry of the source. Where two headings read alike, the source gives them in different places.

Tests used:
clinical HCMV isolate = assay type: cell-based
HCMV strain AD 169 [1] = assay: Rabbit HCMV ascending dose efficacy and time course recovery (Example 7); conditions: for Average HCMV titer / HCMV Recovered, OD / HCMV Recovered, OS / HCMV Titer, OD / HCMV Titer, OS / HCMV recovery frequency / Optic neuritis score (ONH) / Vitreo-retinal score: PALA 50 or DHPG 10 mg/kg/d; for Vitreo-retinal score: sum of both eyes
HCMV strain AD 169 [2] = assay: Rabbit model of HCMV chorioretinitis (Example 5); assay type: in vivo, pigmented rabbit
Description: A total of 32 pigmented rabbits were used in this study. Animals were evaluated by slit lamp and indirect ophthalmoscopy to determine normal ocular morphology and lack of preexisting pathology. Animals were handled as follows:
[1] On day 0, all rabbits were inoculated by mid-vitreal injection of 10^5 PFU HCMV strain AD 169 in 100 μl.
[2] Animals were maintained in individual cages and developing chorioretinal HCMV disease was monitored daily. On day 2 PI, HCMV-inoculated animals were divided into 8 groups of 4 rabbits each with matched chorioretinal disease scores. The HCMV-infected rabbits received intravenous therapy as indicated below:
Group #1--4 animals, intravenous injection of high dose experimental drug (50 mg/kg) daily from day 2 through 10 PI. A total of 9 IV injections.
Group #3--4 animals, intravenous injection of low dose experimental drug (20 mg/kg) daily from day 2 through 10 PI. A total of 9 IV injections.
Group #4--4 animals, intravenous injection of high dose experimental drug (50 mg/kg) daily from day 2 through 10 PI (a total of 9 IV injections) plus high dose DHPG 10 mg/kg/day in 2 divided doses from day 2 through 10 PI (a total of 18 IV injections).
Group #5--4 animals, intravenous injection of high dose experimental drug (50 mg/kg) daily from day 2 through 10 PI (a total of 9 IV injections) plus low dose DHPG 5 mg/kg/day in 2 divided doses from day 2 through 10 PI (a total of 18 IV injections).
Group #6--4 animals, intravenous injection of low dose experimental drug (20 mg/kg) daily from day 2 through 10 PI (a total of 9 IV injections) plus low dose DHPG 5 mg/kg/day in 2 divided doses from day 2 through 10 PI (a total of 18 IV injections).
Group #7--4 animals, intravenous injection of DHPG 10 mg/kg/day in 2 divided doses from day 2 through day 10 PI. A total of 18 IV injections.
Group #8--4 animals, intravenous injection of sterile saline on days 2 through 10 PI.
[3] All animals received daily indirect ophthalmoscopic examinations to evaluate clinical HCMV disease progression (From days 2 through 10 PI). The indirect ophthalmoscopic examinations were performed independently by two readers who were masked as to the therapy that the rabbits were receiving.
[4] All animals were sacrificed on day 12 PI. Chorioretina and iris tissues and vitreous samples will be removed and processed for HCMV recovery by cell sonicate assay on Hs68 cell monolayers. Selected ocular and lung tissue samples were processed for histochemistry to evaluate HCMV-induced ocular pathology in treated and non-treated groups.
The clinical, virus recovery and histological efficacy results for all drug-treated intravenous therapy groups were correlated with each other and with the placebo therapy group.

[3] = PALA 50 daily, DHPG 10/day, or PALA 50 + DHPG 10 or 5 mg/kg i.v.

SMILES: Nc1nc(O)c2ncn(COC(CO)CO)c2n1 [DHPG, reference compound]
- reduction of HCMV titer (clinical HCMV isolate): effective in reducing the titer
- Cell associated HCMV titer (clinical HCMV isolate; day 0 PI): 10^2 PFU/ml
- Cell free (supernatant) HCMV titer (clinical HCMV isolate; day 0 PI): 10^5 PFU/ml
- Cell associated HCMV titer (clinical HCMV isolate; day 1 PI): 10^3 PFU/ml
- Cell free (supernatant) HCMV titer (clinical HCMV isolate; day 1 PI): 10^1 PFU/ml
- Cell associated HCMV titer (clinical HCMV isolate; day 2 PI): 10^2 PFU/ml
- Cell free (supernatant) HCMV titer (clinical HCMV isolate; day 2 PI): 10^1 PFU/ml
- Cell associated HCMV titer (clinical HCMV isolate; day 3 PI): 10^1 PFU/ml
- Cell free (supernatant) HCMV titer (clinical HCMV isolate; day 3 PI): 10^1 PFU/ml
- Cell associated HCMV titer (clinical HCMV isolate; day 4 PI): 10^1 PFU/ml
- Cell free (supernatant) HCMV titer (clinical HCMV isolate; day 4 PI): 10^1 PFU/ml
- Cell associated HCMV titer (clinical HCMV isolate; day 5 PI): 0 PFU/ml
- Cell free (supernatant) HCMV titer (clinical HCMV isolate; day 5 PI): 0 PFU/ml
- Cell associated HCMV titer (clinical HCMV isolate; day 6 PI): 10^1 PFU/ml
- Cell associated HCMV titer (clinical HCMV isolate; day 7 PI): 10^1 PFU/ml
- clinical disease / efficacy (HCMV strain AD 169 [1]; PALA 50 or DHPG 10 mg/kg/day i.v.): did reduce the development of HCMV-induced optic nerve disease severity; also recorded: vitreitis was only marginally affected
- Average HCMV titer (HCMV strain AD 169 [1]; day 3): 10^3 pfu
- HCMV Recovered, OD (HCMV strain AD 169 [1]; day 3): +
- HCMV Recovered, OS (HCMV strain AD 169 [1]; day 3): - and +
- HCMV Titer, OD (HCMV strain AD 169 [1]; day 3): 10^4 pfu
- HCMV Titer, OS (HCMV strain AD 169 [1]; day 3): 10^3 pfu
- HCMV recovery frequency (HCMV strain AD 169 [1]; day 3): 3/4
- Optic neuritis score (ONH) (HCMV strain AD 169 [1]; day 3): 5.0 and 4.0
- Vitreo-retinal score (HCMV strain AD 169 [1]; day 3): 4.75 and 5.0
- HCMV Recovered, OD (HCMV strain AD 169 [1]; day 4): +
- HCMV Recovered, OS (HCMV strain AD 169 [1]; day 4): -
- HCMV Titer, OD (HCMV strain AD 169 [1]; day 4): 10^2 pfu and 10^3 pfu
- HCMV recovery frequency (HCMV strain AD 169 [1]; day 4): 2/4
- Optic neuritis score (ONH) (HCMV strain AD 169 [1]; day 4): 6.0 and 5.0
- Vitreo-retinal score (HCMV strain AD 169 [1]; day 4): 3.75 and 5.75
- Average HCMV titer (HCMV strain AD 169 [1]; day 5): 10^2 pfu
- HCMV Recovered, OD (HCMV strain AD 169 [1]; day 5): - and +
- HCMV Recovered, OS (HCMV strain AD 169 [1]; day 5): + and -
- HCMV Titer, OD (HCMV strain AD 169 [1]; day 5): 10^2 pfu
- HCMV Titer, OS (HCMV strain AD 169 [1]; day 5): 10^2 pfu
- HCMV recovery frequency (HCMV strain AD 169 [1]; day 5): 2/4
- Optic neuritis score (ONH) (HCMV strain AD 169 [1]; day 5): 4.0 and 5.0
- Vitreo-retinal score (HCMV strain AD 169 [1]; day 5): 4.0 and 5.0
- Average HCMV titer (HCMV strain AD 169 [1]; day 6): 10^1 pfu
- HCMV Recovered, OD (HCMV strain AD 169 [1]; day 6): -
- HCMV Recovered, OS (HCMV strain AD 169 [1]; day 6): - and +
- HCMV Titer, OD (HCMV strain AD 169 [1]; day 6): 10^2 pfu
- HCMV recovery frequency (HCMV strain AD 169 [1]; day 6): 1/4
- Optic neuritis score (ONH) (HCMV strain AD 169 [1]; day 6): 2.0
- Optic neuritis score (ONH) (HCMV strain AD 169 [1]; day 7): 2.0
- Vitreo-retinal score (HCMV strain AD 169 [1]; day 7): 3.25 and 5.5
- HCMV Recovered, OD (HCMV strain AD 169 [1]; day 12): -
- HCMV Recovered, OS (HCMV strain AD 169 [1]; day 12): -
- HCMV recovery day 12 PI (HCMV strain AD 169 [2]; [3]): No HCMV was recovered
- clinical efficacy (HCMV strain AD 169 [2]; [3]): did reduce the development of HCMV chorioretinal infection and disease; also recorded: effective in reducing the severity of HCMV-induced chorioretinal disease
- lung appearance at sacrifice (HCMV strain AD 169 [2]; [3]): the lungs appeared normal
- vitreitis severity (HCMV strain AD 169 [2]; [3]): moderate levels from day 4 through day 10 PI
- eyes with stabilized chorioretinal disease (HCMV strain AD 169 [2]; by day 6-7 PI, DHPG 10 mg/kg/day): 70%
